Experimental data published in US20250034125A1, “COMPOUNDS AND USES THEREOF” (JANSSEN PHARMACEUTICA NV, priority 2019, published 2025).
Read-outs that look alike come from different tables or passages of the source.

Legend:
SCD1 = target: T1, SCD1 (Homo sapiens, UniProt O00767); test: Growth inhibition of yeast (ole1Δ) expressing human SCD1 as the sole desaturase; assay type: cell-based
T1 construct: host or cells: Saccharomyces cerevisiae ole1Δ strain (W303 pdr1Δ pdr3Δ background), plasmid pRS316, TDH3 promoter
T1 sequence (O00767 1-359): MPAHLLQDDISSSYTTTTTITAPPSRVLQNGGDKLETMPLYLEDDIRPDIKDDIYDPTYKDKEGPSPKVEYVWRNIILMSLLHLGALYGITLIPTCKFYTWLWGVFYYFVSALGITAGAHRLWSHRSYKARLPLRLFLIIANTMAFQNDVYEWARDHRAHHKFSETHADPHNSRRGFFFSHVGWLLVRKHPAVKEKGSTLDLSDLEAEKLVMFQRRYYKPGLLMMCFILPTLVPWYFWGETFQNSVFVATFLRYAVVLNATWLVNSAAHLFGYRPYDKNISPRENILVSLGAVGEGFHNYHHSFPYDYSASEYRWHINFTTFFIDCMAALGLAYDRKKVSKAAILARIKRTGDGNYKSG

SCD5 = target: T2, SCD5 (Homo sapiens, UniProt Q86SK9); test: Growth inhibition of yeast (ole1Δ) expressing human SCD5 as the sole desaturase; assay type: cell-based
T2 construct: host or cells: Saccharomyces cerevisiae ole1Δ strain (W303 pdr1Δ pdr3Δ background), plasmid pRS316, TDH3 promoter
T2 sequence (Q86SK9 1-330): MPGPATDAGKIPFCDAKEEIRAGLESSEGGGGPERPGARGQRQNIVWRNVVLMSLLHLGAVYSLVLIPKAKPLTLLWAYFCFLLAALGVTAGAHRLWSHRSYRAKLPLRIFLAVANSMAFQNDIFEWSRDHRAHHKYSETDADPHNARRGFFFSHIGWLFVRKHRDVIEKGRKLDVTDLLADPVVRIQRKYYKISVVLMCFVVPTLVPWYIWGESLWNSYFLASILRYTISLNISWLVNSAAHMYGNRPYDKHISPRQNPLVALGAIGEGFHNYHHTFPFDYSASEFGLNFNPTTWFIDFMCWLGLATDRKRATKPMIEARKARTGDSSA

[1] = yeast strain with SCD1 plasmid, OD600 growth read at 40 h, read-out: SCD1 IC50
[2] = yeast strain with SCD5 plasmid, OD600 growth read at 40 h, read-out: SCD5 IC50

## Cn1nc(NC(=O)N2CCC(Oc3ccc(C(F)(F)F)c(F)c3)CC2)ccc1=O [Compound 88, 4-(3-fluoro-4-(trifluoromethyl)phenoxy)-N-(1-methyl-6-oxo-1,6-dihydropyridazin-3-yl)piperidine-1-carboxamide]
SCD1; [1]
  IC50: 0.07 µM
SCD5; [2]
  IC50: 0.03 µM

## Cn1cc(CC(=O)N2CCC(Oc3cccc(Cl)c3)CC2)ccc1=O [Compound 5, 5-(2-(4-(3-chlorophenoxy)piperidin-1-yl)-2-oxoethyl)-1-methylpyridin-2(1H)-one]
SCD1; [1]
  IC50: > 45 µM
SCD5; [2]
  IC50: > 45 µM

## Cn1nc(NC(=O)N2CCC(Cc3ccc(F)c(F)c3)CC2)ccc1=O [Compound 49, 4-(3,4-difluorobenzyl)-N-(1-methyl-6-oxo-1,6-dihydropyridazin-3-yl)piperidine-1-carboxamide]
SCD1; [1]
  IC50: 8.1 µM
SCD5; [2]
  IC50: 0.43 µM

## Cn1nc(NC(=O)N2CCC(Cc3cccc(C#N)c3Cl)CC2)ccc1=O [Compound 56, 4-(2-chloro-3-cyanobenzyl)-N-(1-methyl-6-oxo-1,6-dihydropyridazin-3-yl)piperidine-1-carboxamide]
SCD1; [1]
  IC50: > 45 µM
SCD5; [2]
  IC50: > 45 µM

## Cn1nc(NC(=O)N2CCC(Cc3cc(F)cc(C#N)c3)CC2)ccc1=O [Compound 50]
SCD1; [1]
  IC50: 17.1 µM
SCD5; [2]
  IC50: 2.46 µM

## O=c1ccc(-c2noc(N3CCC(Cc4cc(F)cc(F)c4)CC3)n2)c[nH]1 [Compound 2]
SCD1; [1]
  IC50: > 45 µM
SCD5; [2]
  IC50: > 45 µM

## Cn1nc(NC(=O)N2CCC(OCc3ccccc3F)CC2)ccc1=O [Compound 97, 4-(2-fluorobenzyloxy)-N-(1-methyl-6-oxo-1,6-dihydropyridazin-3-yl)piperidine-1-carboxamide]
SCD1; [1]
  IC50: > 45 µM
SCD5; [2]
  IC50: 26.1 µM

## Cn1nc(NC(=O)N2CCC(Cc3cc(F)cc(F)c3)C2)ccc1=O (stereo not shown) [Compound 26, 3-(3,5-difluorobenzyl)-N-(1-methyl-6-oxo-1,6-dihydropyridazin-3-yl)pyrrolidine-1-carboxamide]
SCD1; [1]
  IC50: 4.15 µM
SCD5; [2]
  IC50: 5.68 µM

## Cn1nc(NC(=O)N2CCC(Cc3ccc(Cl)c(F)c3)CC2)ccc1=O [Compound 52, 4-(4-chloro-3-fluorobenzyl)-N-(1-methyl-6-oxo-1,6-dihydropyridazin-3-yl)piperidine-1-carboxamide]
SCD1; [1]
  IC50: 2.4 µM
SCD5; [2]
  IC50: 0.33 µM

## Cn1nc(NC(=O)N2CCC(Cc3cc(Cl)cc(C#N)c3)CC2)ccc1=O [Compound 57, 4-(3-chloro-5-cyanobenzyl)-N-(1-methyl-6-oxo-1,6-dihydropyridazin-3-yl)piperidine-1-carboxamide]
SCD1; [1]
  IC50: 9.2 µM
SCD5; [2]
  IC50: 2.6 µM

## Cn1nc(-c2nnc(N3CCC(Cc4cc(F)cc(F)c4)CC3)s2)ccc1=O [Compound 121, 6-(5-(4-(3,5-difluorobenzyl)piperidin-1-yl)-1,3,4-thiadiazol-2-yl)-2-methylpyridazin-3(2H)-one]
SCD1; [1]
  IC50: 0.18 µM
SCD5; [2]
  IC50: 0.01 µM

## Cn1cc(-c2noc(N3CCC(Cc4cc(F)cc(F)c4)CC3)n2)ccc1=O [Compound 21, 5-(5-(4-(3,5-difluorobenzyl)piperidin-1-yl)-1,2,4-oxadiazol-3-yl)-1-methylpyridin-2(1H)-one]
SCD1; [1]
  IC50: 10 µM
SCD5; [2]
  IC50: 3 µM

## Cn1nc(OC(=O)N2CCC(Cc3cc(F)cc(F)c3)CC2)ccc1=O [Compound 109]
SCD1; [1]
  IC50: > 45 µM
SCD5; [2]
  IC50: 4.85 µM

## Cn1nc(NC(=O)N2CCC(Oc3ccc(F)cc3C(F)(F)F)CC2)ccc1=O [Compound 85]
SCD1; [1]
  IC50: 0.08 µM
SCD5; [2]
  IC50: 0.05 µM

## O=C(Cc1ccc(=O)[nH]n1)N1CCC(Cc2cc(F)cc(F)c2)CC1 [Compound 35]
SCD1; [1]
  IC50: > 45 µM
SCD5; [2]
  IC50: 20.4 µM

## Cn1nc(OC(=O)N2CCC(Oc3ccc(F)c(F)c3)CC2)ccc1=O [Compound 107]
SCD1; [1]
  IC50: > 45 µM
SCD5; [2]
  IC50: 7.93 µM

## Cn1nc(NC(=O)N2CCC(Nc3cc(F)cc(Cl)c3)CC2)ccc1=O [Compound 93, 4-((3-chloro-5-fluorophenyl)amino)-N-(1-methyl-6-oxo-1,6-dihydropyridazin-3-yl)piperidine-1-carboxamide]
SCD1
  IC50: > 45 µM
SCD5
  IC50: 15 µM
